This is an account of results in patent US9247759B2, “Identification of human T2R receptors that respond to bitter compounds that elicit the bitter taste in compositions, and the use thereof in assays to identify compounds that inhibit (block) bitter taste in compositions and use thereof” (SENOMYX, INC., priority 2007, dated 2016).

Test [1] deals with T1, hT2R14 (Homo sapiens (Human), UniProt Q9NYV8). The experiment in a line: hT2R14 antagonist high-throughput FLIPR assay, stable cell line with G16g44, agonist aristolochic acid. In kind it is cell-based. Conditions: read-out: IC50 on hT2R14 bitter receptor. The method in brief: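 HEK293 cells stably expressing hT2R14 with chimeric G16g44 were stimulated with aristolochic acid (3 μM), giving 70-80% of maximal receptor activity. Test compounds were added together with the agonist, and antagonism was read as fluorescent calcium signal on FLIPR.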
T1 sequence (Q9NYV8 whole entry): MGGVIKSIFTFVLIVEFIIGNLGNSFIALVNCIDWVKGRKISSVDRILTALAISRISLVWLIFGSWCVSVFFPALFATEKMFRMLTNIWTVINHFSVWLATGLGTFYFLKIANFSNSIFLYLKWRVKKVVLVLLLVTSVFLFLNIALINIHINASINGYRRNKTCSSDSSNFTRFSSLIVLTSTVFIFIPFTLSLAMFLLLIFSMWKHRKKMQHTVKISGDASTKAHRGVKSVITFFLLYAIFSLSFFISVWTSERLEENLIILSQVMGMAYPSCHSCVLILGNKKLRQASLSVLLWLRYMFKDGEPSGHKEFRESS

The target of a further test is hT2R3 (Homo sapiens (Human), UniProt Q9NYW6). The experiment in a line: hT2R panel inhibition, transient HEK293 G16g44, agonist Chloroquine pH6.5 50 μM. Conditions: HEK293, compound at 25 μM; receptor activated to EC80 with the corresponding agonist; read-out: screening result against bitter receptor 3. In kind it is cell-based. The procedure, abridged: (§1)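 Each of 22 human bitter receptors was expressed individually by transient transfection in cells stably carrying the promiscuous G protein. Agonists were applied at EC80, and inhibition was scored as the drop in receptor activity with the test compound present.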
Sequence of hT2R3 (Q9NYW6 whole entry): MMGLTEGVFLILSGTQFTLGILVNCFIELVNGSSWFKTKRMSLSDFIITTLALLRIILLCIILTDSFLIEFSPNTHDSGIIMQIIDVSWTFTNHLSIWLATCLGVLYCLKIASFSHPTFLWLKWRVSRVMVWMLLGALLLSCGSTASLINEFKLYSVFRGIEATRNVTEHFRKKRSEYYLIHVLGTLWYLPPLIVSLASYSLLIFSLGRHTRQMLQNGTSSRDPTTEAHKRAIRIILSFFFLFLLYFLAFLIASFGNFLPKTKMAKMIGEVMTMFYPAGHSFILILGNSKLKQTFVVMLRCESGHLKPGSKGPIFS

For a further test, the target named is hT2R4 (Homo sapiens (Human), UniProt Q9NYW5). In words: hT2R panel inhibition, transient HEK293 G16g44, agonist Chloroquine pH6.5 5 mM. Conditions: HEK293, compound at 25 μM; receptor activated to EC80 with the corresponding agonist; class symbols; read-out: screening result against bitter receptor 4. In kind it is cell-based. The procedure, abridged: as §1
Sequence of hT2R4 (Q9NYW5 whole entry): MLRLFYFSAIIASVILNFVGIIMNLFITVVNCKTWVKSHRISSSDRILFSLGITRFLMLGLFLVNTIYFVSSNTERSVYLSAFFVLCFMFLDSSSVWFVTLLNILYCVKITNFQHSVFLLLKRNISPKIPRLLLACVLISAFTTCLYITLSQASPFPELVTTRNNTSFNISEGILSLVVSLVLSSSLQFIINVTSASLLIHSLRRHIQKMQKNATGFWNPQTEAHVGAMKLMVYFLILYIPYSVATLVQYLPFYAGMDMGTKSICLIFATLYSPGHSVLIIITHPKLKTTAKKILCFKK
The target of the next test is hT2R9 (Homo sapiens (Human), UniProt Q9NYW1). In words: hT2R panel inhibition, transient HEK293 G16g44, agonist Ofloxacin 1 mM. The class given is cell-based. Particulars: HEK293, compound at 25 μM; receptor activated to EC80 with the corresponding agonist; read-out: screening result against bitter receptor 9. Here is the method:
Specifically, in order to evaluate the inhibitory selectivity of the Compound C compound, this compound was tested against 22 human T2Rs which were deorphaned by Senomyx. These receptors and the bitter ligands that activate these human T2Rs are reported in earlier patent applications which are incorporated by reference herein. These 22 human T2Rs are hT2R1, 3, 4, 5, 7, 8, 9, 10, 13, 14, 16, 44, 51, 54, 55, 61, 63, 64, 65, 67, 71 and 75. The amino acid and nucleic acid sequences of all of these T2Rs may be found in these earlier patent applications. These human T2Rs were each individually transiently transfected into HEK293 cells that stably express the promiscuous G protein G16g44 and functional assays were effected using these receptors as disclosed in these same patent applications. […] The ligands were used at EC80 concentration levels. The list of bitter ligands utilized and the tested ligand concentrations are contained in Table 5 of this example.
Relating to the foregoing, FIG. 5 contains experimental results wherein Compound C was tested with different agonist compounds. The inhibition activity is represented by the reduction of receptor activity in the presence of Compound C. […] These 13 hT2Rs are hT2R3, 7, 10, 14, 16, 44, 51, 55, 61, 63, 64, 65, and 71.

Another test concerns the target hT2R10 (Homo sapiens (Human), UniProt Q9NYW0). The experiment in a line: hT2R panel inhibition, transient HEK293 G16g44, agonist Strychnine 50 μM. In kind it is cell-based. Conditions: HEK293, read-out: screening result against bitter receptor 10, compound at 25 μM; receptor activated to EC80 with the corresponding agonist.
The target in test [2] is T1, hT2R14. In words: hT2R panel inhibition, transient HEK293 G16g44, agonist Aristolochic Acid 2 μM. The class given is cell-based. Conditions: HEK293, compound at 25 μM; receptor activated to EC80 with the corresponding agonist; read-out: screening result against bitter receptor 14. The procedure, abridged:
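Each hT2R was transiently transfected into HEK293 cells stably expressing G16g44 and assayed functionally for inhibition of agonist response. Agonists were applied at EC80: andrographolide at 0.5 mM for hT2R8 and aristolochic acid at 2 μM for hT2R14.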

A further test concerns the target hT2R16 (Homo sapiens (Human), UniProt Q9NYV7). The experiment in a line: hT2R panel inhibition, transient HEK293 G16g44, agonist Salicin 1 mM. The class given is cell-based. Particulars: HEK293, compound at 25 μM; receptor activated to EC80 with the corresponding agonist; read-out: screening result against bitter receptor 16. The method in brief: as §1
The subject of a further test is hT2R44. The experiment in a line: hT2R panel inhibition, transient HEK293 G16g44, agonist Denatonium 0.5 μM. The class given is cell-based, human. Particulars: compound at 25 μM; receptor activated to EC80 with the corresponding agonist. The procedure, abridged:
as §1

The target of another test is hT2R51 (Homo sapiens (Human), UniProt P59533). The experiment in a line: hT2R panel inhibition, transient HEK293 G16g44, agonist Prop 2.5 μM. In kind it is cell-based. Conditions: HEK293, compound at 25 μM; receptor activated to EC80 with the corresponding agonist; read-out: screening result against bitter receptor 51. The procedure, abridged: as §1
Sequence of hT2R51 (P59533 whole entry): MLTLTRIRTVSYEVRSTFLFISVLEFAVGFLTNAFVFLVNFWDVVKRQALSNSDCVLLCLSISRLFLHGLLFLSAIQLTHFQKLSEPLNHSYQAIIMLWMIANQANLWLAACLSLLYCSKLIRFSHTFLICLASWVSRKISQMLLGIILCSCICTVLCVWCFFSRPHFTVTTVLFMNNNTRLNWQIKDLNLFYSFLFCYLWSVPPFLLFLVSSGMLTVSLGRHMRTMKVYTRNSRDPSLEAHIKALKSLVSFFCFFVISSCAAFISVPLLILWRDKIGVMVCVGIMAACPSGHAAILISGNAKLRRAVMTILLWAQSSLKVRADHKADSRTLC
The subject of a further test is hT2R54. The experiment in a line: hT2R panel inhibition, transient HEK293 G16g44, agonist Ranitidine 5 mM. The class given is cell-based, human. Conditions: compound at 25 μM; receptor activated to EC80 with the corresponding agonist. The procedure, abridged:
as §1

A further test has as its system hT2R55. The experiment in a line: hT2R panel inhibition, transient HEK293 G16g44, agonist Cinchonine 150 μM. The class given is cell-based, human. Particulars: compound at 25 μM; receptor activated to EC80 with the corresponding agonist. The procedure, abridged:
as §1

Another test addresses hT2R61 (Homo sapiens (Human), UniProt P59537). The experiment in a line: hT2R panel inhibition, transient HEK293 G16g44, agonist Aristolochic Acid 25 nM. In kind it is cell-based. Particulars: HEK293, compound at 25 μM; receptor activated to EC80 with the corresponding agonist; read-out: screening result against bitter receptor 61. The procedure, abridged:
as §1

A further test relates to hT2R63. The experiment in a line: hT2R panel inhibition, transient HEK293 G16g44, agonist Caffeine 1 mM or Andrographolide 100 μM. The class given is cell-based, human. Particulars: compound at 25 μM; receptor activated to EC80 with the corresponding agonist. The procedure, abridged: as §1
The target of the next test is hT2R64 (Homo sapiens (Human), UniProt P59538). In words: hT2R panel inhibition, transient HEK293 G16g44, agonist Aristolochic Acid 1 μM. In kind it is cell-based. Particulars: HEK293, compound at 25 μM; receptor activated to EC80 with the corresponding agonist; read-out: screening result against bitter receptor 64. The procedure, abridged:
as §1

The subject of a further test is hT2R65. In words: hT2R panel inhibition, transient HEK293 G16g44, agonist Oleuropein 1 mM. Conditions: compound at 25 μM; receptor activated to EC80 with the corresponding agonist. The class given is cell-based, human. The procedure, abridged:
as §1

The target in another test is hT2R71 (Homo sapiens (Human), UniProt P59536). In words: hT2R panel inhibition, transient HEK293 G16g44, agonist Picric Acid 10 μM. Particulars: HEK293, compound at 25 μM; receptor activated to EC80 with the corresponding agonist; read-out: screening result against bitter receptor 71. In kind it is cell-based. The procedure, abridged:
as §1

The next test concerns the target hT2R5 (Homo sapiens (Human), UniProt Q9NYW4). In words: hT2R panel inhibition, transient HEK293 G16g44, agonist Picoline 10 mM. In kind it is cell-based. Conditions: HEK293, compound at 25 μM; receptor activated to EC80 with the corresponding agonist; read-out: screening result against bitter receptor 5. The method in brief: as §1
A further test concerns the target hT2R7 (Homo sapiens (Human), UniProt Q9NYW3). In words: hT2R panel inhibition, transient HEK293 G16g44, agonist Chloroquine pH6.5 10 mM. Particulars: HEK293, compound at 25 μM; receptor activated to EC80 with the corresponding agonist; read-out: screening result against bitter receptor 7. In kind it is cell-based. The method in brief:
as §1

For the next test, the system named is hT2R67. In words: hT2R panel inhibition, transient HEK293 G16g44, agonist Andrographolide 5 μM. Conditions: compound at 25 μM; receptor activated to EC80 with the corresponding agonist. In kind it is cell-based, human. The procedure, abridged: as §1
The target of a further test is hT2R75 (Homo sapiens (Human), UniProt P59540). In words: hT2R panel inhibition, transient HEK293 G16g44, agonist Strychnine 1 μM. In kind it is cell-based. Conditions: HEK293, read-out: screening result against bitter receptor 75, compound at 25 μM; receptor activated to EC80 with the corresponding agonist.
Sequence of hT2R75 (P59540 whole entry): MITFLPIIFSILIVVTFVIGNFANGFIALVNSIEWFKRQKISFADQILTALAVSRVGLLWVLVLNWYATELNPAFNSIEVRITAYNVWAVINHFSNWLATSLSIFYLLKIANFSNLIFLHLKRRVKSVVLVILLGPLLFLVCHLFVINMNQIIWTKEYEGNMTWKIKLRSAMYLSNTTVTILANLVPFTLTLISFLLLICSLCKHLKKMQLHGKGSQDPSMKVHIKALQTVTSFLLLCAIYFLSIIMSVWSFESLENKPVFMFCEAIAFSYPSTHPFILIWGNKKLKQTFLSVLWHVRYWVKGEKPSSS

A value given as a limit tells only on which side of the number the result lay.

Sequence of hT2R10 (Q9NYW0 whole entry): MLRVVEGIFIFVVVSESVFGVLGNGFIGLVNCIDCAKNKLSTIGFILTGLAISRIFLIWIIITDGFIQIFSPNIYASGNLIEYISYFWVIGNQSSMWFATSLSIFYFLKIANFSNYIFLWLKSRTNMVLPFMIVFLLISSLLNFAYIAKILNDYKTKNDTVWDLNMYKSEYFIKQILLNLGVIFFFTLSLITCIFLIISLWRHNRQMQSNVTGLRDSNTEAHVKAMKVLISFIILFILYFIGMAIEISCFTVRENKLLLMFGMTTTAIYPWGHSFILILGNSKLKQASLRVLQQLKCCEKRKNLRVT
Sequence of hT2R9 (Q9NYW1 whole entry): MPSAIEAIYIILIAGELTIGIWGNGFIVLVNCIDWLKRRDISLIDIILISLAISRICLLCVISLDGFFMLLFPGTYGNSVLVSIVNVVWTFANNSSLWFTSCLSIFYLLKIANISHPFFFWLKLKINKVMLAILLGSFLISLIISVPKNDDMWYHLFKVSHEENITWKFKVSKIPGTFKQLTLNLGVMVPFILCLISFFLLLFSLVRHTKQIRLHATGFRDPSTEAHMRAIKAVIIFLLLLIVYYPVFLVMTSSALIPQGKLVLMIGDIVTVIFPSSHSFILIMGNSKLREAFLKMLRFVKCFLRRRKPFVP
Sequence of hT2R16 (Q9NYV7 whole entry): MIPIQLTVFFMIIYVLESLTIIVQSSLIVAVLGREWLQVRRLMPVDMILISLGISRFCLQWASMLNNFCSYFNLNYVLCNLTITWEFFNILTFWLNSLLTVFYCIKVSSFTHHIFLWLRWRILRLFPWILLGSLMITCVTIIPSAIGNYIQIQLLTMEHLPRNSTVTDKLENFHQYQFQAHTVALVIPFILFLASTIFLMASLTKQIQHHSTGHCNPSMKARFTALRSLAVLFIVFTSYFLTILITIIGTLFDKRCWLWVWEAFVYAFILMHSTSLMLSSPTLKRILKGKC
Sequence of hT2R71 (P59536 whole entry): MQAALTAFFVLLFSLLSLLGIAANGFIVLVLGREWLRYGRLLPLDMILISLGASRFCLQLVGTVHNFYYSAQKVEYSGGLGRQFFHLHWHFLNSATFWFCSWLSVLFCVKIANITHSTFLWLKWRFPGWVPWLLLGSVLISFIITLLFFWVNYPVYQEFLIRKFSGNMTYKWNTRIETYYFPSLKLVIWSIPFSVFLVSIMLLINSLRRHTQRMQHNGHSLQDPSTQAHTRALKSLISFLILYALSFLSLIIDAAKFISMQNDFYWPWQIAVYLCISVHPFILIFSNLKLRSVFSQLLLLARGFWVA
Sequence of hT2R64 (P59538 whole entry): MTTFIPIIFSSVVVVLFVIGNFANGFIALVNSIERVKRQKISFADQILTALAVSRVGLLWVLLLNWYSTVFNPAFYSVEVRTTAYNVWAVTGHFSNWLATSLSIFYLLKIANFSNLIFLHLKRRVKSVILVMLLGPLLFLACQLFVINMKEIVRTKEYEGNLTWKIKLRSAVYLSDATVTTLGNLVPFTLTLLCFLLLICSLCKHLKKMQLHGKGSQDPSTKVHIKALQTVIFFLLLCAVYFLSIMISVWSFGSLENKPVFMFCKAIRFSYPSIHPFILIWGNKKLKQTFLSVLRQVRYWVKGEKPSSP
Sequence of hT2R7 (Q9NYW3 whole entry): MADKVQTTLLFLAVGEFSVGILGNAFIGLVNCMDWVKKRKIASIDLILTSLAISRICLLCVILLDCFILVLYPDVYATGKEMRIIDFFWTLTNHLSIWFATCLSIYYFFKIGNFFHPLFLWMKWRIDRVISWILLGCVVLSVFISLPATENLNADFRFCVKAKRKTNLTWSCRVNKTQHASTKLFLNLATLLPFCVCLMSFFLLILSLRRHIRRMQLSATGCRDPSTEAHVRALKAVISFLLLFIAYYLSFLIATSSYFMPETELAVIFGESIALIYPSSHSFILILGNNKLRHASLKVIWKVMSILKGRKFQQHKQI
Sequence of hT2R5 (Q9NYW4 whole entry): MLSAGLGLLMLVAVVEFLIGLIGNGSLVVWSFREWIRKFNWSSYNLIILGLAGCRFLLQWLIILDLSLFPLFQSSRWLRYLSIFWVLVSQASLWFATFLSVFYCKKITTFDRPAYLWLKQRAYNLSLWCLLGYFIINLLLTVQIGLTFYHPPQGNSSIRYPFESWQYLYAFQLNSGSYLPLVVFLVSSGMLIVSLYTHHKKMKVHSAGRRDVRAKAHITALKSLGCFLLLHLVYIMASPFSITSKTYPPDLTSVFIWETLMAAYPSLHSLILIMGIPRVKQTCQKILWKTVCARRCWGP
Sequence of hT2R61 (P59537 whole entry): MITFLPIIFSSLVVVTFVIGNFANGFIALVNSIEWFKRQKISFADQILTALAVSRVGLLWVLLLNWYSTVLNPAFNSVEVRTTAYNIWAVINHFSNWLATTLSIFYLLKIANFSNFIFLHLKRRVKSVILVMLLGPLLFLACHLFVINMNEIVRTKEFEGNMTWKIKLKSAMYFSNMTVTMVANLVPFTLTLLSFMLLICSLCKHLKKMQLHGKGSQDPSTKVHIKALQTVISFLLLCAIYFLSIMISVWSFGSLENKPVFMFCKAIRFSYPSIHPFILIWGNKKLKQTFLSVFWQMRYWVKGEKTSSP

As to `CCOc1ccc(CN(Cc2ccco2)S(=O)(=O)c2ccc(C(=O)O)cc2)cc1` [Example 5-3, 4-(N-(4-ethoxybenzyl)-N-(furan-2-ylmethyl)sulfamoyl)benzoic acid], the 50% inhibitory concentration (IC50) on hT2R14 [1] is 3 µM. The inhibition at 25 µM on hT2R3 is 40 to 60%; at hT2R4 it was 60 to 80%; at hT2R9, 20 to 40%; on hT2R10, 40 to 60%; at hT2R14 [2], over 80%; on hT2R16, 20 to 40%. Besides, the inhibition at 25 µM on hT2R51 is 20 to 40%; on hT2R61 it was 40 to 60%; on hT2R64, over 80%; at hT2R71 it was 20 to 40%. Further, the “screening result against bitter receptor 44” value in the test with hT2R44 is reported as “++ (40% to 60% inhibition = ++)”. Moreover, the “screening result against bitter receptor 54” value with hT2R54 is given as “++ (40% to 60% inhibition = ++)”. Further, the “screening result against bitter receptor 55” value in the test on hT2R55 is reported as “++++ (80% or greater inhibition = ++++)”. In addition, in the test on hT2R63, the “screening result against bitter receptor 63” value was “+++ (60% to 80% inhibition = +++)”. Also, the “screening result against bitter receptor 65” value in the test with hT2R65 is “+ (20% to 40% inhibition = +)”.
Turning to `COc1ccc(CN(Cc2ccccc2C#N)S(=O)(=O)c2ccc(C(=O)O)cc2)cc1` [Example 5-25, 4-(N-(2-cyanobenzyl)-N-(4-methoxybenzyl)sulfamoyl)benzoic acid], the IC50 on hT2R14 [1] worked out at 4.61 µM. In addition, the inhibition at 25 µM on hT2R3 was 60 to 80%; on hT2R4, 20 to 40%; on hT2R5, 40 to 60%; on hT2R7, 40 to 60%; on hT2R9, 20 to 40%; on hT2R10, 60 to 80%. Moreover, the inhibition at 25 µM at hT2R14 [2] is over 80%; at hT2R16, 40 to 60%; at hT2R51 it was 20 to 40%. Further, the “screening result against bitter receptor 44” value in the test with hT2R44 was “+++ (60% to 80% inhibition = +++)”. In addition, in the test with hT2R54, the “screening result against bitter receptor 54” value is recorded as “+++ (60% to 80% inhibition = +++)”. Moreover, the “screening result against bitter receptor 55” value in the test with hT2R55 is “+++ (60% to 80% inhibition = +++)”. In addition, in the test with hT2R65, the “screening result against bitter receptor 65” value is “++++ (80% or greater inhibition = ++++)”. Besides, the “screening result against bitter receptor 67” value in the test on hT2R67 is “++ (40% to 60% inhibition = ++)”.
As for `Cc1ccccc1CN(Cc1ccccc1)S(=O)(=O)c1ccc(C(=O)O)cc1` [Example 5-80, 4-(N-benzyl-N-(2-methylbenzyl)sulfamoyl)benzoic acid], the inhibition at 25 µM on hT2R3 was 40 to 60%; at hT2R5 it was 20 to 40%; on hT2R7, 20 to 40%; on hT2R9, 20 to 40%; on hT2R10, 20 to 40%; at hT2R14 [2], over 80%. For the same compound, the inhibition at 25 µM at hT2R16 lay in the range of 20 to 40%; on hT2R51, 40 to 60%; on hT2R61, 60 to 80%; on hT2R64, 60 to 80%; at hT2R71, 60 to 80%; on hT2R75, 20 to 40%. In the test on hT2R44, the “screening result against bitter receptor 44” value is recorded as “+ (20% to 40% inhibition = +)”. Moreover, the “screening result against bitter receptor 54” value in the test on hT2R54 is “+ (20% to 40% inhibition = +)”. Besides, the “screening result against bitter receptor 55” value in the test with hT2R55 was “+++ (60% to 80% inhibition = +++)”. The “screening result against bitter receptor 63” value in the test on hT2R63 is given as “++++ (80% or greater inhibition = ++++)”. The “screening result against bitter receptor 65” value in the test on hT2R65 is reported as “++ (40% to 60% inhibition = ++)”. The “screening result against bitter receptor 67” value with hT2R67 is given as “+ (20% to 40% inhibition = +)”.
